Experimental data taken from US20150353495A1 (PORTOLA PHARMACEUTICALS, INC., priority 2010, published 2015).

Tests used:
Format in all cases: biochemical
[1] = target: T1, JAK1 (Homo sapiens, UniProt P23458); experiment: Z'-LYTE kinase assay JAK1
T1 construct: 5 μl of catalytic domain recombinant Kinase enzyme+Tyr peptide substrate (Invitrogen, CA); purchased Invitrogen
Procedure: (§1) JAK and TYK2 tyrosine phosphorylation activity is measured using the Z′-LYTE™ Technology developed by Invitrogen Corporation (Carlsbad, Calif.). For JAK1, JAK2 and JAK3 the Z′-LYTE™ Kinase Assay Kit-Tyr6 Peptide (part number PV4122) was used. For TYK2 the Z′-LYTE™ Kinase Assay Kit-Tyr6 Peptide (part number PV3192) was used. The Z′-LYTE™ biochemical assay employs a fluorescence resonance energy transfer (FRET) coupled-enzyme format and is based on the differential sensitivity of phosphorylated and non-phosphorylated peptides to proteolitic cleavage. The assay uses a synthetic peptide substrate that is labelled with a donor fluorophore (coumarin) and an acceptor fluorophore (fluorescein) that make up a FRET pair. In the primary reaction (the Kinase Reaction), the kinase transfers the γ-phosphate of ATP to a single tyrosine residue on the substrate, while the presence of a kinase inhibitor in the primary reaction suppresses phosphorylation. In the secondary reaction (the Development Reaction), a site-specific protease (the Development Reagent) is added. The development buffer quenches the Kinase Reaction, while the protease recognizes and cleaves non-phosphorylated Z′-LYTE™ peptide substrate. Cleavage disrupts FRET between the donor and acceptor fluorophores on the non-phosphoryleted substrate, while uncleaved, phosphorylated substrate maintains FRET.
(§2) To test the ability of candidate molecules to inhibit JAK tyrosine phosphorylation activity, molecules are reconstituted in 100% DMSO and serially diluted 1:10 in polypropylene v-bottom microtiter plates. The candidate molecules are then diluted 1:25 into kinase buffer and 2.5 μl transferred into duplicate wells of a 384 well low volume black microtiter assay plate (Corning, USA). The final DMSO concentration in the assay is 1%. The kinase reaction contains 2.5 μl of a candidate molecule, 5 μl of catalytic domain recombinant Kinase enzyme+Tyr peptide substrate (Invitrogen, CA) and 2.5 μl ATP (Invitrogen, CA). The kinase reaction is allowed to procede for 1 hour at room temperature. The protease reaction is initiated by the addition of 5 μl Development Reagent (Invitrogen, CA). After 1 hour incubation at room temperature the fluorescence is measured using a FlexStation plate reader (Molecular Devices, Sunnyvale, Calif.).

[2] = target: T2, JAK3 (Homo sapiens, UniProt P52333); experiment: Z'-LYTE kinase assay JAK3
T2 construct: 5 μl of catalytic domain recombinant Kinase enzyme+Tyr peptide substrate (Invitrogen, CA); purchased Invitrogen
T2 sequence (P52333 822-1111 limits assumed): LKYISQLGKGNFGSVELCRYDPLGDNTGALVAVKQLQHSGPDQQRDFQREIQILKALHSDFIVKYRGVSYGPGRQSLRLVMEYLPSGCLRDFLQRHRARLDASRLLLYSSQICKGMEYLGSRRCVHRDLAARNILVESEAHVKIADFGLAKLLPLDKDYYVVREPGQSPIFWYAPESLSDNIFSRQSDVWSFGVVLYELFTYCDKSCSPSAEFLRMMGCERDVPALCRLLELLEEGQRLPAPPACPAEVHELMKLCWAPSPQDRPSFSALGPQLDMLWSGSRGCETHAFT
Procedure: as §1, §2

[3] = target: T3, JAK2 (Homo sapiens, UniProt O60674); experiment: Z'-LYTE kinase assay JAK2
T3 construct: 5 μl of catalytic domain recombinant Kinase enzyme+Tyr peptide substrate (Invitrogen, CA); purchased Invitrogen
T3 sequence (O60674 849-1124 limits assumed): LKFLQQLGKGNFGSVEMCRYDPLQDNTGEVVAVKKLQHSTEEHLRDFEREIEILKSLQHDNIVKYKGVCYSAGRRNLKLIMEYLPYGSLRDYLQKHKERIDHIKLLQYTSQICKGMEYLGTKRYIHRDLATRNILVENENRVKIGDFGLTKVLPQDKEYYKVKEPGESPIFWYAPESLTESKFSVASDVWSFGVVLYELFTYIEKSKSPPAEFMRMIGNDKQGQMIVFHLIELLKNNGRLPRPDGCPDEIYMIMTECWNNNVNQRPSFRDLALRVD
Procedure: as §1, §2

T1 sequence (P23458 875-1153 limits assumed): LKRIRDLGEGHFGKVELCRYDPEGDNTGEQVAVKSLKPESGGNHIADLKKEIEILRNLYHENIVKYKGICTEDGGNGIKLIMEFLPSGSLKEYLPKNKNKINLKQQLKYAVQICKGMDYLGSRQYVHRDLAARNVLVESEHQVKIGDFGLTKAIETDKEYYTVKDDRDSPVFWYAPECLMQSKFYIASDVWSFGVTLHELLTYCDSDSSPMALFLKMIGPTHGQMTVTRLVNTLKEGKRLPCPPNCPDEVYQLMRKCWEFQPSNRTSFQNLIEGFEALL

SMILES | IC50 [1] | IC50 [2] | IC50 [3]
CC(=O)N1CCC(CNc2cc(Nc3ccc(C(=O)N4CCC4)cc3)ncc2C(N)=O)CC1 [Example 50, 4-((1-acetylpiperidin-4-yl)methylamino)-6-(4-(azetidine-1-carbonyl)phenylamino)nicotinamide] | > 1000 nM | > 1000 nM | > 1000 nM
COCC(=O)N1CCC[C@@H](CNc2cc(Nc3ccc(OC)cc3)ncc2C(N)=O)C1 [Example 51, (S)-4-((1-(2-methoxyacetyl)piperidin-3-yl)methylamino)-6-(4-methoxyphenylamino)nicotinamide] | > 1000 nM | 100 to 1000 nM | > 1000 nM
COC(=O)N1CCC[C@@H](CNc2cc(Nc3ccc(OC)cc3)ncc2C(N)=O)C1 [Example 52, (S)-methyl 3-((5-carbamoyl-2-(4-methoxyphenylamino)pyridin-4-ylamino)methyl)piperidine-1-carboxylate] | > 1000 nM | 100 to 1000 nM | > 1000 nM
COc1ccc(Nc2cc(NC[C@@H]3CCCN(C(=O)N(C)C)C3)c(C(N)=O)cn2)cc1 [Example 53, (S)-4-((1-(dimethylcarbamoyl)piperidin-3-yl)methylamino)-6-(4-methoxyphenylamino)nicotinamide] | > 1000 nM | 100 to 1000 nM | > 1000 nM
COc1ccc(Nc2cc(NC[C@H]3CCCN(C(C)=O)C3)c(C(N)=O)cn2)cc1 [Example 54] | > 1000 nM | 10 to 100 nM | 100 to 1000 nM
COCC(=O)N1CCC[C@H](CNc2cc(Nc3ccc(OC)cc3)ncc2C(N)=O)C1 [Example 55, (R)-4-((1-(2-methoxyacetyl)piperidin-3-yl)methylamino)-6-(4-methoxyphenylamino)nicotinamide] | > 1000 nM | 10 to 100 nM | > 1000 nM
COC(=O)N1CCC[C@H](CNc2cc(Nc3ccc(OC)cc3)ncc2C(N)=O)C1 [Example 56, (R)-methyl 3-((5-carbamoyl-2-(4-methoxyphenylamino)pyridin-4-ylamino)methyl)piperidine-1-carboxylate] | > 1000 nM | 100 to 1000 nM | > 1000 nM
COc1ccc(Nc2cc(NC[C@H]3CCCN(S(C)(=O)=O)C3)c(C(N)=O)cn2)cc1 [Example 57, (R)-6-(4-methoxyphenylamino)-4-((1-(methylsulfonyl)piperidin-3-yl)methylamino)nicotinamide] | > 1000 nM | 10 to 100 nM | 100 to 1000 nM
CN1C(=O)COc2ccc(Nc3cc(NCc4ccccc4)c(C(N)=O)cn3)cc21 [Example 85, 4-(benzylamino)-6-(4-methyl-3-oxo-3,4-dihydro-2H-benzo[b][1,4]oxazin-6-ylamino)nicotinamide] | > 1000 nM | 10 to 100 nM | > 1000 nM
NC(=O)c1cnc(Nc2ccc3ncccc3c2)cc1NCc1ccccc1 [Example 86, 4-(benzylamino)-6-(quinolin-6-ylamino)nicotinamide] | > 1000 nM | 10 to 100 nM | > 1000 nM
NC(=O)c1cnc(Nc2ccc3cccnc3c2)cc1NCc1ccccc1 [Example 87, 4-(benzylamino)-6-(quinolin-7-ylamino)nicotinamide] | > 1000 nM | 100 to 1000 nM | > 1000 nM
NC(=O)c1cnc(Nc2ccc3cnccc3c2)cc1NCc1ccccc1 [Example 88, 4-(benzylamino)-6-(isoquinolin-6-ylamino)nicotinamide] | > 1000 nM | 10 to 100 nM | > 1000 nM
NC(=O)c1cnc(Nc2ccc3ccncc3c2)cc1NCc1ccccc1 [Example 89, 4-(benzylamino)-6-(isoquinolin-7-ylamino)nicotinamide] | > 1000 nM | 100 to 1000 nM | > 1000 nM
NC(=O)c1cnc(Nc2ccc3ncsc3c2)cc1NCc1ccccc1 [Example 90, 6-(benzo[d]thiazol-6-ylamino)-4-(benzylamino)nicotinamide] | > 1000 nM | 10 to 100 nM | > 1000 nM
CN(C)S(=O)(=O)c1ccc(Nc2cc(NCC3CCCC3)c(C(N)=O)cn2)cc1 [Example 97, 4-(cyclopentylmethylamino)-6-(4-(N,N-dimethylsulfamoyl)phenylamino)nicotinamide] | > 1000 nM | 100 to 1000 nM | > 1000 nM

The next lines start with the values.

IC50 [1] | IC50 [2] | IC50 [3] | SMILES
> 1000 nM | > 1000 nM | > 1000 nM | CN(C)C(=O)c1ccc(Nc2cc(NCc3ccccc3)c(C(=O)N(C)C)cn2)cc1 [Example 30, 4-(benzylamino)-6-(4-(dimethylcarbamoyl)phenylamino)-N,N-dimethylnicotinamide]
> 1000 nM | 100 to 1000 nM | > 1000 nM | COc1ccc(Nc2cc(NCC3CCCC3)c(C(N)=O)cn2)cc1 [Example 32, 4-(cyclopentylmethylamino)-6-(4-methoxyphenylamino)nicotinamide]
> 1000 nM | > 1000 nM | > 1000 nM | COc1ccc(Nc2cc(Nc3ccc(C)cc3)c(C(N)=O)cn2)cc1 [Example 33, 6-(4-methoxyphenylamino)-4-(p-tolylamino)nicotinamide]
> 1000 nM | > 1000 nM | > 1000 nM | COc1ccc(Nc2cc(Nc3ccc(OC)cc3)c(C(N)=O)cn2)cc1 [Example 34, 4,6-bis(4-methoxyphenylamino)nicotinamide]
> 1000 nM | > 1000 nM | > 1000 nM | COc1ccc(Nc2cc(NCC3CCN(C(C)=O)CC3)c(C(N)=O)cn2)cc1 [Example 35, 4-((1-acetylpiperidin-4-yl)methylamino)-6-(4-methoxyphenylamino)nicotinamide]
> 1000 nM | > 1000 nM | > 1000 nM | COc1ccc(Nc2cc(N[C@H]3CCCN(C(C)=O)C3)c(C(N)=O)cn2)cc1 [Example 36, (S)-4-(1-acetylpiperidin-3-ylamino)-6-(4-methoxyphenylamino)nicotinamide]
> 1000 nM | > 1000 nM | > 1000 nM | COc1ccc(Nc2cc(N[C@@H]3CCCN(C(C)=O)C3)c(C(N)=O)cn2)cc1 [Example 37, (R)-4-(1-acetylpiperidin-3-ylamino)-6-(4-methoxyphenylamino)nicotinamide]
100 to 1000 nM | 10 to 100 nM | 100 to 1000 nM | NC(=O)c1cnc(Nc2ccc(C(=O)N3CCOCC3)cc2)cc1NCC1CCCC1 [Example 42, 4-(cyclopentylmethylamino)-6-(4-(morpholine-4-carbonyl)phenylamino)nicotinamide]
> 1000 nM | 100 to 1000 nM | > 1000 nM | CC(=O)N1CCC(CNc2cc(Nc3ccc(C(=O)N4CCCC4)cc3)ncc2C(N)=O)CC1 [Example 43, 4-((1-acetylpiperidin-4-yl)methylamino)-6-(4-(pyrrolidine-1-carbonyl)phenylamino)nicotinamide]
> 1000 nM | > 1000 nM | > 1000 nM | CC(=O)N1CCC(CNc2cc(Nc3ccc(C(=O)N4CCOCC4)cc3)ncc2C(N)=O)CC1 [Example 44, 4-((1-acetylpiperidin-4-yl)methylamino)-6-(4-(morpholine-4-carbonyl)phenylamino)nicotinamide]
> 1000 nM | 100 to 1000 nM | > 1000 nM | NC(=O)c1cnc(Nc2ccc(S(=O)(=O)N3CCC3)cc2)cc1NCc1ccccc1 [Example 47, 6-(4-(azetidin-1-ylsulfonyl)phenylamino)-4-(benzylamino)nicotinamide]
100 to 1000 nM | 10 to 100 nM | 100 to 1000 nM | NC(=O)c1cnc(Nc2ccc(C(=O)N3CCC3)cc2)cc1NCC1CCCC1 [Example 48, 6-(4-(azetidine-1-carbonyl)phenylamino)-4-(cyclopentylmethylamino)nicotinamide]
> 1000 nM | 100 to 1000 nM | > 1000 nM | NC(=O)c1cnc(Nc2ccc(S(=O)(=O)N3CCC3)cc2)cc1NCC1CCCC1 [Example 49, 6-(4-(azetidin-1-ylsulfonyl)phenylamino)-4-(cyclopentylmethylamino)nicotinamide]
100 to 1000 nM | 10 to 100 nM | 100 to 1000 nM | CN(C)C(=O)c1cccc(Nc2cc(NCC3CCCC3)c(C(N)=O)cn2)c1 [Example 95, 4-(cyclopentylmethylamino)-6-(3-(dimethylcarbamoyl)phenylamino)nicotinamide]
100 to 1000 nM | 10 to 100 nM | 100 to 1000 nM | CN(C)C(=O)c1ccc(Nc2cc(NCC3CCCC3)c(C(N)=O)cn2)cc1 [Example 96, 4-(cyclopentylmethylamino)-6-(4-(dimethylcarbamoyl)phenylamino)nicotinamide]
